Results on 20 compounds are retold here after patent US11033539B2, “Compounds of formulas (VII), (VIII), (IX), (XI), (XII), (XIII), and (XIV) as muscarinic receptor 4(M4) antagonists for treating neurological diseases” (Neurocrine Biosciences, Inc., priority 2015, dated 2021).

The Ki is a measure of affinity in units of concentration, obtained from inhibition or displacement.

Assay [1] has as its target human M4 receptor (Homo sapiens (Human), UniProt P08173). Description: Radioligand (tritiated N-methylscopolamine) binding assay, M4. As to conditions: Ki against the M4 receptor; membranes from CHO cells expressing human M4; tritiated N-methylscopolamine 1.5 nM; read-out: Ki. A digest of the protocol: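 Compounds were tested at twelve concentrations ranging from 10 μM to […] against 1.5 nM radioligand on CHO cell membranes expressing each subtype. Incubation lasts 90 min at 37 °C in HEPES-buffered saline with Mg2+ and EDTA, pH 7.4, and filtration then separates bound radioligand.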

In assay [2] the target is human M1 receptor (Homo sapiens (Human), UniProt P11229). In words: Radioligand (tritiated N-methylscopolamine) binding assay, M1. The following applies: CHO cell membranes expressing human M1; 1.5 nM tritiated N-methylscopolamine; 90 min, 37° C.; read-out: Ki against M1 receptor (Table 21, M1). The procedure:
(§1) Binding affinity (Ki) of compounds was measured by inhibition of radioligand binding to membranes from CHO cells expressing human M1, M2, M3, M4 and M5 receptors. Membranes were prepared by nitrogen cavitation and differential centrifugation as previously described (Hoare et al., Mol. Pharmacol. 2003 March; 63(3): 751-65). The radioligand employed was tritiated N-methylscopolamine, used at a concentration of 1.5 nM. A dose-response of twelve concentrations of compound was used, ranging from 10 μM to […]. The assay buffer was 50 mM HEPES, 100 mM NaCl, 5 mM MgCl2, 1 mM ethylenediaminetetraacetic acid, pH-adjusted to pH 7.4. Membranes, radioligand and compound were incubated together for 90 minutes at 37° C., in a total volume of 150 μl in a 96-well plate. Receptor-bound radioligand was then collected by harvesting the assay over glass fiber filters pretreated with polyethylenimine to trap the cell membranes, using rapid vacuum filtration. Harvesting and radioactivity counting was conducted as previously described (see, e.g., Hoare et al., Mol. Pharmacol. 2003 63(3):751-65); Erratum at Mol. Pharmacol. 2005 July; 68(1): 260).

Assay [3] has as its target human M2 receptor (Homo sapiens (Human), UniProt P08172). In words: Radioligand (tritiated N-methylscopolamine) binding assay, M2. The following applies: CHO cell membranes expressing human M2; 1.5 nM tritiated N-methylscopolamine; 90 min, 37° C.; read-out: Ki against M2 receptor (Table 21, M2). The procedure: as §1
In assay [4] the target is human M5 receptor (Homo sapiens (Human), UniProt P08912). Description: Radioligand (tritiated N-methylscopolamine) binding assay, M5. The following applies: CHO cell membranes expressing human M5; 1.5 nM tritiated N-methylscopolamine; 90 min, 37° C.; read-out: Ki against M5 receptor (Table 21, M5). The procedure:
as §1

Assay [5] deals with human M3 receptor (Homo sapiens (Human), UniProt P20309). In words: Radioligand (tritiated N-methylscopolamine) binding assay, M3. As to conditions: CHO cell membranes expressing human M3; 1.5 nM tritiated N-methylscopolamine; 90 min, 37° C.; read-out: Ki against M3 receptor (Table 21, M3). The procedure:
as §1

Bounds are passed on as bounds.

Chain of human M5 receptor (P08912 whole entry): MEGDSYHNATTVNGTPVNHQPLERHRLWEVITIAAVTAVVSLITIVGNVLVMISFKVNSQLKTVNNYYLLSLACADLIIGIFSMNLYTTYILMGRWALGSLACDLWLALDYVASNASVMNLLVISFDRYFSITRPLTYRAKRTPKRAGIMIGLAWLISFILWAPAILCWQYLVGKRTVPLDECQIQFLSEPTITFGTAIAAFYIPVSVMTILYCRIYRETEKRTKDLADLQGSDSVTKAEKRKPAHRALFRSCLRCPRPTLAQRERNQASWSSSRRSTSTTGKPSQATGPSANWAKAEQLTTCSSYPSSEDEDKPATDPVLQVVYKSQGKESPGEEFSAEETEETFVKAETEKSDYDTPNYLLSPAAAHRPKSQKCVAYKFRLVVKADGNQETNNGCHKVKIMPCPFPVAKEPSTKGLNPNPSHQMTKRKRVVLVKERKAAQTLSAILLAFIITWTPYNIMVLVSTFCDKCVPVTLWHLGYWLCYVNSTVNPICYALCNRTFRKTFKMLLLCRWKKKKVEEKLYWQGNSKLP
Chain of human M2 receptor (P08172 whole entry): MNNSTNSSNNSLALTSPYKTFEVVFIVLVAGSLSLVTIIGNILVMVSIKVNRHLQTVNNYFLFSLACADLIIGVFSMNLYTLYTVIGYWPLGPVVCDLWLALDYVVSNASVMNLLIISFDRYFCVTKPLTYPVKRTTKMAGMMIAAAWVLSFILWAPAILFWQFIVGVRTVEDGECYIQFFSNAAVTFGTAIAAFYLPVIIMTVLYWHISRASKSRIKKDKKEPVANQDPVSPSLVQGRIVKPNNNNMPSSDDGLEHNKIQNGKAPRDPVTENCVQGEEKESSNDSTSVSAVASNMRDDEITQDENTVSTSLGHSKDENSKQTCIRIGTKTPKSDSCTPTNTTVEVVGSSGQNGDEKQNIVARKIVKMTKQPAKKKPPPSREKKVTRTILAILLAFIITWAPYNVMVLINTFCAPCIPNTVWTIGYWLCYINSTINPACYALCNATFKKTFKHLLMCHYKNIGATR
Chain of human M4 receptor (P08173 whole entry): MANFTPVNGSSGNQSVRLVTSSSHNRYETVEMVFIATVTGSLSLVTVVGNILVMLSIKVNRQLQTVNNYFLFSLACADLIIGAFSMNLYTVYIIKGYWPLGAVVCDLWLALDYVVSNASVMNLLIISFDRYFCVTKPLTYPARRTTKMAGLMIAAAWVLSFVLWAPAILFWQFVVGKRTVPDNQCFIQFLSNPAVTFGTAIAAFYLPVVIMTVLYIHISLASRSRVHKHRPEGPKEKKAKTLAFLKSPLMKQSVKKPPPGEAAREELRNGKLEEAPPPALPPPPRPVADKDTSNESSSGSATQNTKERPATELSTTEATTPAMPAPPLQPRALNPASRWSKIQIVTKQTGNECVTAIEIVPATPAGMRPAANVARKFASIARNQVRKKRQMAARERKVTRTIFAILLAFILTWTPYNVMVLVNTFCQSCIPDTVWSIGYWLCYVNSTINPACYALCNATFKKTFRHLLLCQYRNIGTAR
Chain of human M3 receptor (P20309 whole entry): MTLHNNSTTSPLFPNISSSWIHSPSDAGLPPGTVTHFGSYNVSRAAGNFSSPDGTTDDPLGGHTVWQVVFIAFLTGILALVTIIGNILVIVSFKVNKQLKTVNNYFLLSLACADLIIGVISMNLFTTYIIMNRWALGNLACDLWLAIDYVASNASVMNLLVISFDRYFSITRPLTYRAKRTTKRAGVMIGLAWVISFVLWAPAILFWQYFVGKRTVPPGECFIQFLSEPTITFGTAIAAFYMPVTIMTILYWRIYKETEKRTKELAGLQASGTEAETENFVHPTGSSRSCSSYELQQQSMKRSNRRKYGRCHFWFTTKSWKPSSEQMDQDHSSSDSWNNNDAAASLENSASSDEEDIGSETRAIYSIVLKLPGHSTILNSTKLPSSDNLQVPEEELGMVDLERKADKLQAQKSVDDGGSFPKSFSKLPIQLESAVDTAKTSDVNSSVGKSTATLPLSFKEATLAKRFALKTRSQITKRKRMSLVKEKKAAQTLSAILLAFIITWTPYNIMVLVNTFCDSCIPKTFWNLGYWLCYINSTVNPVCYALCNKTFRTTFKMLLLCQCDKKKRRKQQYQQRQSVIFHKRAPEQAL
Chain of human M1 receptor (P11229 whole entry): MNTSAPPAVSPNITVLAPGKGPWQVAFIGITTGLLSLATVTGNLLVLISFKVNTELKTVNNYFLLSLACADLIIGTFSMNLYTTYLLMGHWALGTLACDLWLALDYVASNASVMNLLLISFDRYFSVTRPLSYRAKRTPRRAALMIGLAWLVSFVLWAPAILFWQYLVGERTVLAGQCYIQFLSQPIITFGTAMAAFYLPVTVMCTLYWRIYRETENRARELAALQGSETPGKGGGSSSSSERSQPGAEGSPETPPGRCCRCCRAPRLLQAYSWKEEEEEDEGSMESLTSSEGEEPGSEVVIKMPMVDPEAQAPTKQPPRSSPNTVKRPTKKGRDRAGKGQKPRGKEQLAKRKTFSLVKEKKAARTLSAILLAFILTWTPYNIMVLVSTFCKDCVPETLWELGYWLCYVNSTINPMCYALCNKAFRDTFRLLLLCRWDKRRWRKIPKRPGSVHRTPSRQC

For the compound `C[C@@H]1CN(c2ncc(C#N)cn2)C[C@H](C)N1C(=O)NCCC1CCN(Cc2ccccc2)CC1` [5-20, (2S,6R)-N-[2-(1-benzylpiperidin-4-yl)ethyl]-4-(5-cyanopyrimidin-2-yl)-2,6-dimethylpiperazine-1-carboxamide], the Ki in assay [1] was < 0.01 µM; in assay [2], > 1 µM; in assay [3], 0.1 to 1 µM; in assay [4] it was > 1 µM; in assay [5] it was > 1 µM.
Turning to `O=C(NCCC1CCN(Cc2ccccc2)CC1)c1ccc(-c2ccc(OC(F)(F)F)cc2)cc1F` [9-6, N-[2-(1-benzylpiperidin-4-yl)ethyl]-2-fluoro-4-[4-(trifluoromethoxy)phenyl]benzamide], the Ki in assay [1] is < 0.01 µM; in assay [2] it was 0.1 to 1 µM; in assay [3], 0.01 to 0.1 µM; in assay [4], 0.1 to 1 µM; in assay [5] it was 0.1 to 1 µM.
Regarding `C[C@@H]1CN(c2ccc(OC(F)(F)F)c(C#N)c2)CCN1C(=O)NCCC1CCN(Cc2ccccc2)CC1` [3-1, (2R)-N-[2-(1-benzylpiperidin-4-yl)ethyl]-4-[3-cyano-4-(trifluoromethoxy)phenyl]-2-methylpiperazine-1-carboxamide], the Ki in assay [1] was < 0.01 µM; in assay [2], 0.1 to 1 µM; in assay [3], 0.01 to 0.1 µM; in assay [4], > 1 µM; in assay [5], > 1 µM.
In the case of `C[C@@H]1CN(c2cc(F)cc(C#N)c2)CCN1C(=O)NC[C@@H](O)C1CCN(Cc2ccccc2)CC1` [9-5, (2R)-N-[(2S)-2-(1-benzylpiperidin-4-yl)-2-hydroxyethyl]-4-(3-cyano-5-fluorophenyl)-2-methylpiperazine-1-carboxamide], the Ki in assay [1] is < 0.01 µM; in assay [2], > 1 µM; in assay [3], > 1 µM; in assay [4], > 1 µM; in assay [5] it was > 1 µM.
For the compound `Cc1ccc(N2CCN(C(=O)NCCC3CCN(Cc4ccccc4)CC3)[C@H](C)C2)cc1F` [4-13, (2R)-N-[2-(1-benzylpiperidin-4-yl)ethyl]-4-(3-fluoro-4-methylphenyl)-2-methylpiperazine-1-carboxamide], the inhibition constant (Ki) in assay [1] is < 0.01 µM; in assay [2], > 1 µM; in assay [3] it was 0.1 to 1 µM; in assay [4], > 1 µM; in assay [5] it was > 1 µM.
Turning to `C[C@H]1CN(c2ccc(OC(F)(F)F)c(F)c2)CCN1C(=O)NCCC1CCN(Cc2ccccc2)CC1` [4-53, (2S)-N-[2-(1-benzylpiperidin-4-yl)ethyl]-4-[3-fluoro-4-(trifluoromethoxy)phenyl]-2-methylpiperazine-1-carboxamide], the Ki in assay [1] is < 0.01 µM; in assay [2], 0.1 to 1 µM; in assay [3] it was 0.01 to 0.1 µM; in assay [4], 0.1 to 1 µM; in assay [5], 0.1 to 1 µM.
As to `N#Cc1cc(F)cc(N2CCC(C(=O)NCCC3CCN(Cc4ccccc4)CC3)CC2)c1` [10-14, N-[2-(1-benzylpiperidin-4-yl)ethyl]-1-(3-cyano-5-fluorophenyl)piperidine-4-carboxamide], the Ki in assay [1] was < 0.01 µM; in assay [2], > 1 µM; in assay [3], 0.1 to 1 µM; in assay [4], > 1 µM; in assay [5], > 1 µM.
As for `C[C@@H]1CN(c2ncc(C#N)c(N)n2)C[C@H](C)N1C(=O)NCCC1CCN(Cc2ccccc2)CC1` [5-14, (2S,6R)-4-(4-amino-5-cyanopyrimidin-2-yl)-N-[2-(1-benzylpiperidin-4-yl)ethyl]-2,6-dimethylpiperazine-1-carboxamide], the Ki in assay [1] is < 0.01 µM; in assay [2], 0.1 to 1 µM; in assay [3] it was 0.1 to 1 µM.
`C[C@@H]1CN(c2cc(F)cc(F)c2)CCN1C(=O)NCCC1CCN(Cc2ccccc2)CC1` [4-72, (2R)-N-[2-(1-benzylpiperidin-4-yl)ethyl]-4-(3,5-difluorophenyl)-2-methylpiperazine-1-carboxamide]: the Ki in assay [1] is < 0.01 µM; in assay [2], 0.1 to 1 µM; in assay [3], 0.1 to 1 µM; in assay [4], > 1 µM.
Take `C[C@@H]1CN(c2ncc(C(F)(F)F)c(N)n2)CCN1C(=O)NCCC1CCN(Cc2ccccc2)CC1` [21-17, (2R)-4-[4-amino-5-(trifluoromethyl)pyrimidin-2-yl]-2-methyl-N-(2-{1-[α,α-^2H-benzyl]piperidin-4-yl}ethyl)piperazine-1-carboxamide]: the inhibitory constant (Ki) in assay [1] was < 0.01 µM; in assay [3] it was < 0.01 µM; in assay [4], 0.1 to 1 µM; in assay [5], 0.01 to 0.1 µM.
In the case of `C[C@@H]1CN(c2nccc(C#N)n2)C[C@H](C)N1C(=O)NCCC1CCN(Cc2ccccc2)CC1` [4-14, (2S,6R)-N-[2-(1-benzylpiperidin-4-yl)ethyl]-4-(4-cyanopyrimidin-2-yl)-2,6-dimethylpiperazine-1-carboxamide], the inhibition constant Ki in assay [1] is < 0.01 µM; in assay [2], > 1 µM; in assay [3] it was 0.1 to 1 µM; in assay [4], > 1 µM.
Consider `C[C@@H]1CN(c2cccc(OC(F)(F)F)c2)CCN1C(=O)NCCC1CCN(Cc2ccccc2)CC1` [4-16, (2R)-N-[2-(1-benzylpiperidin-4-yl)ethyl]-2-methyl-4-[3-(trifluoromethoxy)phenyl]piperazine-1-carboxamide], for which the Ki is < 0.01 µM in assay [1], 0.1 to 1 µM in assay [2], 0.1 to 1 µM in assay [3] and > 1 µM in assay [4].
As for `C[C@@H]1CN(c2ncc(C#N)cn2)C[C@H](C)N1C(=O)NCCC1CCN(Cc2ccccc2)CC1` [21-15, (2R,6S)-4-(5-cyanopyrimidin-2-yl)-2,6-dimethyl-N-(2-{1-[α,α-^2H-benzyl]piperidin-4-yl}ethyl)piperazine-1-carboxamide], the Ki in assay [1] was < 0.01 µM; in assay [2], > 1 µM; in assay [4] it was > 1 µM; in assay [5] it was > 1 µM.
For the compound `C[C@@H]1CN(c2ncc(C#N)cn2)C[C@H](C)N1C(=O)NCCC1CCN(Cc2ccccc2)CC1` [21-2, (2R,6S)-4-(5-cyanopyrimidin-2-yl)-2,6-dimethyl-N-(2-{1-[α,α-^2H-benzyl]piperidin-4-yl}ethyl)piperazine-1-carboxamide], the Ki in assay [1] is < 0.01 µM; in assay [2] it was > 1 µM; in assay [4], > 1 µM; in assay [5], > 1 µM.
Turning to `C[C@@H]1CN(c2ncc(C#N)c(N)n2)C[C@H](C)N1C(=O)NCCC1CCN(Cc2ccccc2)CC1` [4-54, (2S,6R)-4-(4-amino-5-cyanopyrimidin-2-yl)-N-[2-(1-benzylpiperidin-4-yl)ethyl]-2,6-dimethylpiperazine-1-carboxamide], the inhibition constant Ki in assay [2] was 0.1 to 1 µM; in assay [3], 0.1 to 1 µM; in assay [4], > 1 µM; in assay [5] it was > 1 µM.
Consider `C[C@@H]1CN(c2ncc(C(F)(F)F)c(N)n2)CCN1C(=O)NCCC1CCN(Cc2ccccc2)CC1` [21-16, (2R)-4-[4-amino-5-(trifluoromethyl)pyrimidin-2-yl]-2-methyl-N-(2-{1-[α,α-^2H-benzyl]piperidin-4-yl}ethyl)piperazine-1-carboxamide], for which the inhibition constant Ki in assay [1] is < 0.01 µM; in assay [3], < 0.01 µM; in assay [4], 0.1 to 1 µM; in assay [5] it was 0.01 to 0.1 µM.
Turning to `C[C@@H]1CN(c2ccc3c(c2)OC(F)(F)O3)CCN1C(=O)NCCC1CCN(Cc2ccccc2)CC1` [4-6, (2R)-N-[2-(1-benzylpiperidin-4-yl)ethyl]-4-(2,2-difluoro-2H-1,3-benzodioxol-5-yl)-2-methylpiperazine-1-carboxamide], the inhibitory constant (Ki) in assay [1] was < 0.01 µM; in assay [2], 0.1 to 1 µM; in assay [3], 0.01 to 0.1 µM; in assay [4], > 1 µM.
On to `O=C(NCCC1CCN(Cc2ccccc2)CC1)c1ccc(-c2ccc(OC(F)(F)F)cc2)cc1` [9-70, N-[2-(1-benzylpiperidin-4-yl)ethyl]-4-[4-(trifluoromethoxy)phenyl]benzamide], for which the inhibition constant Ki in assay [2] and in assay [3] was 0.1 to 1 µM throughout.
Turning to `C[C@@H]1CN(c2ncc(C(F)(F)F)cn2)CCN1C(=O)NCCC1CCN(Cc2ccccc2)CC1` [21-14, (2R)-2-methyl-N-(2-{1-[α,α-^2H-benzyl]piperidin-4-yl}ethyl)-4-[5-(trifluoromethyl)pyrimidin-2-yl]piperazine-1-carboxamide], the inhibition constant Ki in assay [5] was 0.1 to 1 µM.
Take `O=C(NCCC1(O)CCN(Cc2ccccc2)CC1)C1CCN(c2ccc(OC(F)(F)F)c(F)c2)CC1` [9-72, N-[2-(1-benzyl-4-hydroxypiperidin-4-yl)ethyl]-1-[3-fluoro-4-(trifluoromethoxy)phenyl]piperidine-4-carboxamide]: the Ki in assay [2] and in assay [3] was 0.1 to 1 µM in each case.
